Measured values as given in patent publication US12171255B2, “Shisha, heat-not-burn, or combustion casing, product, and method of making the same” (Tobacco Technology, Inc., priority 2020, dated 2024).

Tested on: microbial growth
Assay: Inhibition of microbial growth (preservative effect)

| Structure (SMILES) | effectiveness at inhibiting microbial growth compared with propylene glycol | amount that can inhibit microbial growth and act as a preservative (in casing) |
| --- | --- | --- |
| O=C(O)CC(O)(CC(=O)O)C(=O)O [citric acid] | more effective at inhibiting microbial growth than propylene glycol | – |
| CC(O)CO (centres unmarked) [propylene glycol] | – | above 15 % by weight |
